Assays:
[1] = Drug-drug interaction study with strong CYP3A4 inducer rifampicin in healthy volunteers; assay type: in vivo, human; conditions: with rifampicin 600 mg q.d. vs Compound 1 alone
Source text: (§1) The DDI study design is outlined in FIG. 10.
(§2) An ANOVA model with fixed effects for treatment and subject was fitted to each log-transformed PK parameter. Results were back transformed to obtain ‘Adjusted geo-mean’, ‘Geo-mean ratio’ and ‘90% Cl’.

[2] = Off-target binding or activity (background statement)
[3] = Physical properties of the drug substance (solubility, hygroscopicity, wettability); assay type: physicochemical
[4] = Drug-drug interaction study with strong CYP3A4 inhibitor itraconazole in healthy volunteers; assay type: in vivo, human; conditions: with itraconazole 200 mg q.d. vs Compound 1 alone
Source text: as §1, §2

[5] = Chemical stability of crystalline Compound 1 at high temperature/humidity (UPLC purity); assay type: physicochemical; conditions: for Purity/%: crystalline material
Source text: After storage at high temperature and/or humidity, bulk crystalline material was sampled and dissolved in acetonitrile:water (80:20) and the purity analysed in a Waters Aquity UPLC using the following conditions: […]

Question: For `C[C@@]1(c2nc(NC(=O)c3ncc(C(F)(F)F)cc3Cl)ccc2F)CO[C@@](C)(C(F)(F)F)C(N)=N1` [Compound 1, N-(6-((3R,6R)-5-amino-3,6-dimethyl-6-(trifluoromethyl)-3,6-dihydro-2H-1,4-oxazin-3-yl)-5-fluoropyridin-2-yl)-3-chloro-5-(trifluoromethyl)picolinamide], which “decrease of mean AUC” value [1] is on record?
Answer: Its value is 5-6 fold.

Question: What about the “decrease of mean Cmax” value [1] of the same compound?
Answer: Its value is 2.5 fold.

Question: What about the “off-target binding or activity” value [2] of the same compound?
Answer: Its value is “no relevant off-target binding or activity”.

Question: And the “hygroscopicity” value [3]?
Answer: The value was “non-hygroscopic”.

Question: And the “wettability” value [3]?
Answer: The value was “poorly wettable”.

Question: What about the “solubility in water” value ([3]; water) of the same compound?
Answer: The value was “poorly soluble”.

Question: And the “increase of mean AUC” value [4]?
Answer: Its value is 2-3 fold.

Question: What about the “increase of mean Cmax” value [4] of the same compound?
Answer: The value was 25%.

Question: And the “Solid State Form” value ([5]; 50° C./75% RH, 3 weeks)?
Answer: Its value is “Crystalline”.

Question: And the “Solid State Form” value ([5]; 50° C., 4 weeks)?
Answer: Its value is “Crystalline”.

Question: And the “Solid State Form” value ([5]; 80° C., 3 weeks)?
Answer: Its value is “Crystalline”.

Question: What about the “Solid State Form” value ([5]; RT, 0 (initial)) of the same compound?
Answer: The value was “Crystalline”.

Question: What about the Purity/% ([5]; 50° C./75% RH, 3 weeks) of the same compound?
Answer: The Purity/% was 96.8%.

Question: And the Purity/% ([5]; 50° C., 4 weeks)?
Answer: Its Purity/% is 97.3%.

Question: And the Purity/% ([5]; 80° C., 3 weeks)?
Answer: Its Purity/% is 97.3%.

Question: What about the Purity/% ([5]; RT, 0 (initial)) of the same compound?
Answer: The Purity/% was 97.3%.
